Data set [1] can be described thus: Pharmacokinetics of Ac15(Az8)2 in mice. It counts as in vivo. The note with it: female, Balb/c, mouse, ip, 45 mg/kg I.P., plasma. The method, then:
Ac15(Az8)2 and topotecan in plasma were analyzed by UPLC–MS/MS. UPLC (Acquity Waters) and triple quadrupole mass analyzer (Quattro Ultima) with an electrospray ionization source in the positive mode were used to quantify Ac15(Az8)2 and topotecan. Acquity UPLC BEH C8 and C18 column (1.7 µm 2.1 × 50 mm) from Waters was used to separate Ac15(Az8)2 and topotecan, respectively. Mobile phases used for Ac15(Az8)2 analysis were water and acetonitrile. Ac15(Az8)2 and its internal standard Ac15(Az5)2 (Figure S2) were monitored at m/z 608 → m/z 149 and m/z 594 → […], respectively. Mobile phases used for topotecan analysis were water and methanol. Topotecan and its internal standard tetracycline were monitored at m/z 422 → m/z 377 and m/z 445 → m/z 410, respectively.
Female Balb/c mice at 4–6 weeks were used for the pharmacokinetic studies. Ac15(Az8)2 at 4 mg/mL was prepared in 10% NMP, 10% Cremophor-EL and 80% H2O. Topotecan was dissolved in H2O at 1 mg/mL, and 45 mg/kg Ac15(Az8)2 was administered through intraperitoneal (I.P.) injection. Blood was collected at 10, 30, 60, 70, 90, 120, 180, 240, 300, 480, 720 and 1440 min by cardiac puncture and stored in heparinized tubes for centrifugation at 16,000 g for 5 min. For topotecan pharmacokinetic study, 2 mg/kg topotecan was I.P. administered one hour after 45 mg/kg Ac15(Az8)2 or solvent injection. Blood was collected at 10, 30, 60, 120, 240 and 480 min post-topotecan administration. All animal studies were approved by the Animal Subjects Ethics Sub-committee of the Hong Kong Polytechnic University and performed in accordance with the Cap340 Animal License of the Department of Health in Hong Kong.

The next data set deals with S1M180 xenograft. Description: In vivo topotecan accumulation in tumor and plasma of S1M180-bearing mice. The note with it: 45 mg/kg Ac15(Az8)2 I.P. one hour prior to 6 mg/kg topotecan I.P.; 5 h post administration. The source says:
(A) S1 xenograft. (B) S1M180 xenograft. There were 3 treatment groups in S1 and S1M180 xenograft model. Treatments were given as indicated by an arrow (↑). % of tumor volume reduction was compared among different treatment groups on days 55 and 71. a, b, and c = mean tumor volume of solvent control, topotecan alone, and combination treatment groups on day 55, respectively. d and e = mean tumor volume of topotecan alone and combination treatment groups on day 71. (C) Tumor weight of S1M180-bearing mice on termination day. (D) % change of tumor volume and tumor doubling time of S1M180 xenograft were determined on days 55 and 71. […] Number of animal death was monitored during the efficacy study. (E) Body weight of S1M180-bearing mice. (F) To measure plasma and intratumor level of topotecan, S1M180-bearing mice were administered with 45 mg/kg (I.P.) of Ac15(Az8)2 one hour prior to 6 mg/kg (I.P.) of topotecan administration. Five hours after topotecan administration, the mice were sacrificed. Plasma and tumor were collected for analyzing topotecan level using UPLC–MS/MS. Student’s unpaired two-tailed t-test was performed between combination group and topotecan alone group or solvent control group as indicated (* p < 0.05, ** p < 0.01, *** p < 0.001).

As a reminder, the AUC(0-inf) is total exposure, with the tail of the curve extrapolated. The term Cmax denotes the peak of the concentration-time curve. What is called Tmax is the time from dosing to the highest level. As usually defined, the half-life is the time needed for the level to fall by half in the phase considered. Turning to `COC(=O)c1cccc(COc2c(-c3ccc(OCCOCCn4cc(CN(Cc5ccccc5)Cc5cn(CCOCCOc6ccc(-c7oc8ccccc8c(=O)c7OCc7cccc(C(=O)OC)c7)cc6)nn5)nn4)cc3)oc3ccccc3c2=O)c1` [Ac15(Az8)2], in data set [1], the AUC(0-inf) is 83.5 µg·h/mL, the Cmax turned out to be 15.7 µg/mL and the Tmax worked out at 3 h. Besides, the half-life in data set [1] (read-out: Half-life (E-phase) (converted)) is 10.6 h. In the data set with S1M180 xenograft, the “Effect on plasma level of topotecan” value is recorded as “did not change significantly”.

For the origin of these results see publication PMC9653733, “Characterization of a Potent, Selective, and Safe Inhibitor, Ac15(Az8)2, in Reversing Multidrug Resistance Mediated by Breast Cancer Resistance Protein (BCRP/ABCG2)” (International Journal of Molecular Sciences, 2022).
